# Measured values taken from publication PMC6025901 (Science translational medicine, 2015).
# pEC50: −log10 of the molar value. Read-outs that look alike come from different tables or passages of the source.
# What was measured:
# TcdB CPD domain = TcdB CPD domain (Clostridioides difficile, UniProt P18177); assay: competition labeling assay with TAMRA–AWP-19; format: biochemical, Clostridium difficile; conditions: IP6-activated CPD, TAMRA–AWP-19 labeling
# full-length TcdB = full-length TcdB (Clostridioides difficile, UniProt P18177); format: biochemical, Clostridium difficile
# Sequence of full-length TcdB (P18177 whole entry): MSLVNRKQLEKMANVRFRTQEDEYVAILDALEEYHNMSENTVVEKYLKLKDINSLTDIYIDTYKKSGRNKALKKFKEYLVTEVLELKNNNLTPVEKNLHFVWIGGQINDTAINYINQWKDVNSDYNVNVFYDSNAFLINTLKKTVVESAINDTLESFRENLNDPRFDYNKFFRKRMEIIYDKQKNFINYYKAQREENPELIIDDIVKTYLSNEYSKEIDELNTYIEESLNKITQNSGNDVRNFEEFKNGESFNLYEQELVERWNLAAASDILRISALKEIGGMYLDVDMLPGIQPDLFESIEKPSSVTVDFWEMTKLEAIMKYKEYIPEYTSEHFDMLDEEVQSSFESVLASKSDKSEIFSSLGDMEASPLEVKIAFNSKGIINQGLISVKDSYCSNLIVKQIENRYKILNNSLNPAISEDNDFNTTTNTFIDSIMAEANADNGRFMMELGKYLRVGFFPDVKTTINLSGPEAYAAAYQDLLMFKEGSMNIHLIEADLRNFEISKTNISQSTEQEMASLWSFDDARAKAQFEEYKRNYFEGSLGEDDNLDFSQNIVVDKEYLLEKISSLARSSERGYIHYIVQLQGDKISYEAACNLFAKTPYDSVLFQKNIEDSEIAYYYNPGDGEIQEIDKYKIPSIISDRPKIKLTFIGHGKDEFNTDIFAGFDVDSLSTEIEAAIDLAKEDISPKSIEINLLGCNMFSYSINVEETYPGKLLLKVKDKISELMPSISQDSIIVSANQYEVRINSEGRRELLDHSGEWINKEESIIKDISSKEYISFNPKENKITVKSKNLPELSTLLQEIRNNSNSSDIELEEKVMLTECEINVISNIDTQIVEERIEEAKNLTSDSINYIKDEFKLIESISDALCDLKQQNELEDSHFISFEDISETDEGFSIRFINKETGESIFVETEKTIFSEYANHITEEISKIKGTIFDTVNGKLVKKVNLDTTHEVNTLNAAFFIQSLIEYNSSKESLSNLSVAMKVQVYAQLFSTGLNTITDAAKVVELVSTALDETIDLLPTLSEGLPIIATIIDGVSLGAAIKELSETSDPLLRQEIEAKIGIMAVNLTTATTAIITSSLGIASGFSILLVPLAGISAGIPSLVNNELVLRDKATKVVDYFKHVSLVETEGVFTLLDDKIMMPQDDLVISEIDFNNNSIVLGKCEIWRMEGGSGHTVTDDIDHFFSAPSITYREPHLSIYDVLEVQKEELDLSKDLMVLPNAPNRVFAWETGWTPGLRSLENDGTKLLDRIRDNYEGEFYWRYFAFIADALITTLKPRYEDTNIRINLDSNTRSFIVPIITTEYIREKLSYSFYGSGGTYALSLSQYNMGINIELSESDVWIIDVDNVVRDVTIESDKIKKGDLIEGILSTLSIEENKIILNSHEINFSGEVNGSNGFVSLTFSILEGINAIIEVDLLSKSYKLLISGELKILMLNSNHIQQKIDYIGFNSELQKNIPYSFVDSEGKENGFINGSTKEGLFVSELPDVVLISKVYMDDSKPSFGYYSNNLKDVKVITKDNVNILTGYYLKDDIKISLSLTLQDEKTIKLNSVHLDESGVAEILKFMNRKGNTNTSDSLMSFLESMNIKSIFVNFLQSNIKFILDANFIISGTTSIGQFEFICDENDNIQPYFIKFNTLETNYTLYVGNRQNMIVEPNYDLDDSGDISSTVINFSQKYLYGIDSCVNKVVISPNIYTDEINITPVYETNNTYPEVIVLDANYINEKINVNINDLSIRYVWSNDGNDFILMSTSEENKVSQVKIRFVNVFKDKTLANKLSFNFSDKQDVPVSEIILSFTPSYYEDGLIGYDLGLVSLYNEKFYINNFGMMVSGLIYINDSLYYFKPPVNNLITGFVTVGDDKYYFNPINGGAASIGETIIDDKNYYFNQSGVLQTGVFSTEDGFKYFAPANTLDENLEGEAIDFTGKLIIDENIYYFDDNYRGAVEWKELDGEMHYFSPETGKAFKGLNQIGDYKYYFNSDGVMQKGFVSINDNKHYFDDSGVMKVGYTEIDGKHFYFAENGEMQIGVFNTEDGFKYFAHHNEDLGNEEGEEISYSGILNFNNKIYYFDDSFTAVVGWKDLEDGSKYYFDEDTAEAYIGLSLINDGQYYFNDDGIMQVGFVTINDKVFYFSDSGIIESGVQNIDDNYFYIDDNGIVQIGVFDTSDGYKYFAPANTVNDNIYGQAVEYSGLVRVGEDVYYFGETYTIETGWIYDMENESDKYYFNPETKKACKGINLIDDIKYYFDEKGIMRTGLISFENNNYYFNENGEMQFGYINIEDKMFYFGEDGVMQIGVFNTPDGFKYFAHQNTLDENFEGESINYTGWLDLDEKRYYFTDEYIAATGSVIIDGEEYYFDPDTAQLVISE
# full-length TcdA = full-length TcdA (Clostridioides difficile, UniProt P16154); assay: IP6-induced autoprocessing / TAMRA–AWP-19 labeling of full-length TcdA; format: biochemical, Clostridium difficile
# [1] = test system: TcdB-induced cell rounding, human foreskin fibroblast (HFF) cells; assay: cells; format: cell-based; conditions: for pEC50: Homo sapiens, HFF
# [2] = test system: large clostridial toxins (TcdA and TcdB) in patient stool sample, cell rounding; assay: cells; format: cell-based; conditions: Homo sapiens, read-out: EC50 for inhibition of toxin-induced cytopathology
# [3] = molecular target: TcdB GTD domain (amino acids 1 to 543) (Clostridioides difficile, UniProt P18177); format: biochemical, Clostridium difficile
# TcdB = TcdB (Clostridioides difficile, UniProt P18177); assay: murine systemic intoxication; format: in vivo, mouse; conditions: mice, TcdB 1.0 µg/kg i.p. pretreated with 100 nM ebselen
# Sequence of TcdB (P18177 2-2366 limits assumed): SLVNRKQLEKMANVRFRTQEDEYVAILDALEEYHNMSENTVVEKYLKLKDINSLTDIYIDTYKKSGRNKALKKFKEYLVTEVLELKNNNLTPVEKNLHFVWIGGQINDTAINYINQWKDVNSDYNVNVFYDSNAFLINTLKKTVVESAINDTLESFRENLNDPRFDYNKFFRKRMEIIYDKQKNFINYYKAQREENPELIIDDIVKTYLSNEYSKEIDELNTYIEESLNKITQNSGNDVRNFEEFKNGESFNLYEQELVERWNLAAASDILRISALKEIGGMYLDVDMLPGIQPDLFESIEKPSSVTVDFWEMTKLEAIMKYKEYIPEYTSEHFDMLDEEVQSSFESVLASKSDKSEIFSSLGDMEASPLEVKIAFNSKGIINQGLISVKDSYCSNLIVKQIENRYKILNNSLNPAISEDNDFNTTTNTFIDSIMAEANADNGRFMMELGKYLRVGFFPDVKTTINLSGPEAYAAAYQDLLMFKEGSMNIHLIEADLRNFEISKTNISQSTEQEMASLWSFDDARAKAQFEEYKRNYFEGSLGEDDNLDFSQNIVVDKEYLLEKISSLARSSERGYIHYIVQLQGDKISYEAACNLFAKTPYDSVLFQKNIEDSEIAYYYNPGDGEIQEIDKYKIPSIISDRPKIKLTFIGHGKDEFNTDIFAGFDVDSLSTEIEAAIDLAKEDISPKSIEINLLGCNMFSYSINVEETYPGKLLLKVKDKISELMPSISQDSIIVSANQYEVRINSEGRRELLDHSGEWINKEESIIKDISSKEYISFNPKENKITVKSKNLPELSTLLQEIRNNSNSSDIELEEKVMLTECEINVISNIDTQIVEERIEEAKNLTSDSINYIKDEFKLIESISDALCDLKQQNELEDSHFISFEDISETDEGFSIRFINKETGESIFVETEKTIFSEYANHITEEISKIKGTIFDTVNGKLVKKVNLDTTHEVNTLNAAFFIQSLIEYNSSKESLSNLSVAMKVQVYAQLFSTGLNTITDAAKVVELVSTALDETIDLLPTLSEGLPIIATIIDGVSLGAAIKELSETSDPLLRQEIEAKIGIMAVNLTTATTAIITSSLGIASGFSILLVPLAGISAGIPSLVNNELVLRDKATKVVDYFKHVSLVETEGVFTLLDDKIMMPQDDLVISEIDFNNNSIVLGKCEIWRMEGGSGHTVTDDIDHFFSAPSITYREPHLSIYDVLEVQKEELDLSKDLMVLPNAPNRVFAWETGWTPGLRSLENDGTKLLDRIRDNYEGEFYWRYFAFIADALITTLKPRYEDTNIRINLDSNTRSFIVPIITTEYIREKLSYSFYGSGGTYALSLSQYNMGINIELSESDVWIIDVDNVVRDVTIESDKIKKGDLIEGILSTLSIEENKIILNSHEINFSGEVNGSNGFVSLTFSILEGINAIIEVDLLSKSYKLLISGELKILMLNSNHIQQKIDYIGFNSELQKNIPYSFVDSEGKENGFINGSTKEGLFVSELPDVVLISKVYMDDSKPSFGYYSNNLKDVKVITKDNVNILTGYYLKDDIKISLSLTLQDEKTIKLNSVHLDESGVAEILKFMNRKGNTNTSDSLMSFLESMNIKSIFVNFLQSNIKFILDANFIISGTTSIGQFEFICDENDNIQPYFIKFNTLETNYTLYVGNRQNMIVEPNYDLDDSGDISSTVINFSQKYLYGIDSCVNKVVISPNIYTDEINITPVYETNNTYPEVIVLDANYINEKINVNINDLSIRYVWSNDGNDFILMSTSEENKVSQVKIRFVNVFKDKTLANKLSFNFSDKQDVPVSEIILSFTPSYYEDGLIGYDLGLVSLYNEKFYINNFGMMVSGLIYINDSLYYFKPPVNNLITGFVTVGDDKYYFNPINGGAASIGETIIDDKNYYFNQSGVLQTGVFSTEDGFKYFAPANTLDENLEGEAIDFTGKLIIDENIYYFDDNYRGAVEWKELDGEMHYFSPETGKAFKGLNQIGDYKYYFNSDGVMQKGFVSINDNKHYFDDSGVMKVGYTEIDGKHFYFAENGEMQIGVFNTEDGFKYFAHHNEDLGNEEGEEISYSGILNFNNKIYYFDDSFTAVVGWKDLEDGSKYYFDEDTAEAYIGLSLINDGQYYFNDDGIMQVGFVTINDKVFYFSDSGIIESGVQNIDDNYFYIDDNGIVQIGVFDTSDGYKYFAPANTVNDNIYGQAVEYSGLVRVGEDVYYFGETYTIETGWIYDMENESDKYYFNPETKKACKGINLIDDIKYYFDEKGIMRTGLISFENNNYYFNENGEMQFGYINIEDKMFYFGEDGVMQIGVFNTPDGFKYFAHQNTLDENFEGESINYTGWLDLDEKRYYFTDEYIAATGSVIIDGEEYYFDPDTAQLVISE
# C. difficile strain 630 = assay: mouse C. difficile infection model; format: in vivo; conditions: for histopathological score, dose-response study: 5-day treatment
# [4] = 100 mg/kg daily oral gavage, day 5, vs vehicle
# Sequence of TcdB CPD domain (P18177 544-799 limits assumed): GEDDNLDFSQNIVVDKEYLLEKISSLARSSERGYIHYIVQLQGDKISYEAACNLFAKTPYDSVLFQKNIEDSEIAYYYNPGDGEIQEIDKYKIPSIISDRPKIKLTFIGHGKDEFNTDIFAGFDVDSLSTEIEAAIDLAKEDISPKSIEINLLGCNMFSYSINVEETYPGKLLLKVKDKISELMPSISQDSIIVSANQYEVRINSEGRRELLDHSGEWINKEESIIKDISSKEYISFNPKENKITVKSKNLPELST
compound,measurement,setting,value
"O=c1c2ccccc2[se]n1-c1ccccc1 [ebselen, 2-phenyl-1,2-benzoselenazol-3-one]",inhibition of IP6-induced labeling of the CPD active-site cysteine,TcdB CPD domain,low nanomolar concentrations
same,concentration giving complete inhibition of IP6-induced release of the GTD,full-length TcdB,20 nM
same,inhibition of IP6-induced autoprocessing of full-length TcdB,full-length TcdB,low nanomolar potency
same,inhibition of IP6-induced autoprocessing of full-length TcdA,full-length TcdA,low nanomolar potency
same,"glucosylated Rac1 (Western blot, mAb102 nonglucosylated Rac1)",[1],decreased with increasing amounts of ebselen
same,protection against delayed toxicity of L543A noncleavable mutant TcdB,[1],showed further protection
same,pEC50,[1]; read-out: EC50 for blocking cell rounding,7.69
same,pEC50,[1]; read-out: EC50 for protection against cell rounding,6.66
same,pEC50,[2],6.43
same,inhibition of glucosyltransferase activity of the GTD domain,[3],did not show any inhibition
same,clinical signs of toxin action (vital signs),TcdB,no significant changes in vital signs
same,"histopathological score, dose-response study",C. difficile strain 630; 1 mg/kg daily,no improvement in histopathological score
same,"histopathological score, dose-response study",C. difficile strain 630; 10 mg/kg daily,partial response
same,C. difficile CFU counts in feces,"C. difficile strain 630; 100 mg/kg daily oral gavage, 5-day experiment",did not significantly affect
same,"histopathological scores for cell infiltration, submucosal edema, and mucosal hypertrophy",C. difficile strain 630; [4],significantly lower
same,overall histopathological (clinical) score,C. difficile strain 630; [4],statistically significant drop in clinical score
same,cell rounding activity of shed toxin in feces (quantity of feces required to induce 50% cell rounding),"C. difficile strain 630; 100 mg/kg daily oral gavage, day 5 after infection",reduction in cell rounding activity of shed toxin
same,cleaved form of GTD in colon tissues (Western blot),"C. difficile strain 630; 100 mg/kg daily oral gavage, vs vehicle",reduced the amount of the cleaved form of GTD
same,"histopathological score, dose-response study",C. difficile strain 630; 100 mg/kg daily,virtually complete response
